These results are taken from PubChem BioAssay (NCI).

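Assay format: 96-well plates, 48-hour exposure. GI50 = concentration required for 50% inhibition of growth. The concentration for full growth arrest is given as TGI.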

Among the test systems are A498 renal; EKVX NSCLC; HT29 colon; LOX IMVI melanoma; NCI-H226 lung; NCI-H23 lung; RXF 393 renal; SK-MEL-5 melanoma; UACC-62 melanoma.
Test in all cases: NCI-60 cell line screen, 48 h

Turning to `CCn1c(C(=O)N(C2CC2)C2CC2)cc2c3c(ncn3C)c(Nc3cc(C)n(C)n3)nc21`, the TGI in the test with A498 renal, in the test with EKVX NSCLC, in the test with HT29 colon, with LOX IMVI melanoma, with NCI-H226 lung and in the test on NCI-H23 lung was more than 100 µM each time. The figures for the TGI in the test on RXF 393 renal, in the test on SK-MEL-5 melanoma and in the test on UACC-62 melanoma were 23.9 µM, more than 100 µM and more than 100 µM, respectively. The GI50 in the test with EKVX NSCLC is more than 100 µM; with HT29 colon it was more than 100000 nM; with LOX IMVI melanoma, 59200 nM; in the test with NCI-H226 lung it was more than 100 µM; with NCI-H23 lung, more than 100000 nM; in the test with RXF 393 renal, 2990 nM. Moreover, the GI50 was more than 100 µM in the test on SK-MEL-5 melanoma and more than 100000 nM in the test on UACC-62 melanoma.

`COc1ccc(Nc2ncc(Br)c(NCCCNC(=O)C3CCC3)n2)cc1`: the GI50 in the test on A498 renal is 12.3 µM; with EKVX NSCLC, 20.5 µM; in the test on HT29 colon it was 18700 nM; in the test with LOX IMVI melanoma, 4060 nM; in the test with NCI-H226 lung it was 4.8 µM; with NCI-H23 lung, 16600 nM. For the same compound, the GI50 with RXF 393 renal is 2300 nM; in the test with SK-MEL-5 melanoma, 13 µM; in the test with UACC-62 melanoma it was 17700 nM. The TGI in the test with A498 renal is 27.2 µM; with EKVX NSCLC it was 83.9 µM; in the test on HT29 colon, 85.4 µM; in the test with LOX IMVI melanoma, 18.1 µM; in the test on NCI-H226 lung it was 37.7 µM; in the test on NCI-H23 lung it was 62.2 µM. Further, the TGI worked out at 8.56 µM in the test with RXF 393 renal, 35.1 µM in the test on SK-MEL-5 melanoma and 36.3 µM with UACC-62 melanoma.

For the compound `O=C1c2ccc([N+](=O)[O-])cc2-c2c1c1ccccc1c(=O)n2CCCNCCCNCCCn1c2c(c3ccc([N+](=O)[O-])cc3c1=O)C(=O)c1ccccc1-2`, the GI50 in the test on A498 renal was 2.05 µM; in the test with EKVX NSCLC, 8.76 µM; in the test on HT29 colon, 182 nM; with LOX IMVI melanoma, 2700 nM; in the test with NCI-H226 lung, 1.57 µM; with NCI-H23 lung, 1200 nM. The GI50 in the test with RXF 393 renal is 5510 nM; with SK-MEL-5 melanoma it was 3.07 µM; in the test on UACC-62 melanoma, 1710 nM. Besides, the TGI stood at 8.88 µM in the test on A498 renal; 32.1 µM with EKVX NSCLC; 1.48 µM in the test on HT29 colon; 16 µM with LOX IMVI melanoma; 8.53 µM in the test with NCI-H226 lung; 3.4 µM with NCI-H23 lung. Also, the TGI is 41 µM in the test with RXF 393 renal, 20.9 µM in the test with SK-MEL-5 melanoma and 4.85 µM in the test on UACC-62 melanoma.

`CN1CCN(c2ccc(NC(=O)c3nc4ccc5[nH]ncc5c4c4c3CCCC4)cc2C(F)(F)F)CC1`: the GI50 in the test on A498 renal was more than 50 µM; with EKVX NSCLC, 1.44 µM; in the test with HT29 colon, 1020 nM; with LOX IMVI melanoma it was 836 nM; in the test with NCI-H226 lung, 4.36 µM; in the test with NCI-H23 lung it was 1500 nM. The values for the GI50 in the test on RXF 393 renal, in the test on SK-MEL-5 melanoma and with UACC-62 melanoma were 798 nM, 1.53 µM and 973 nM, respectively. The TGI in the test on A498 renal is more than 50 µM; in the test with EKVX NSCLC, 8.62 µM; with HT29 colon it was 3.06 µM; with LOX IMVI melanoma it was 1.55 µM; in the test on NCI-H226 lung, 17.7 µM; in the test with NCI-H23 lung, 6.71 µM. The TGI in the test with RXF 393 renal was found to be 1.55 µM; in the test with SK-MEL-5 melanoma, 5.23 µM; in the test on UACC-62 melanoma, 1.83 µM.

As to `CC1(C)CC[C@H](Nc2ncc(C(F)(F)F)c(-c3c[nH]c4c(P(C)(C)=O)c(C#N)ccc34)n2)CN1`, the GI50 with A498 renal is 1.76 µM; in the test with EKVX NSCLC, less than 0.0113 µM; in the test on HT29 colon it was less than 25.9 nM; with LOX IMVI melanoma, 29.7 nM; with NCI-H226 lung, 0.165 µM; in the test on NCI-H23 lung, less than 10 nM. Besides, the GI50 in the test on RXF 393 renal was 777 nM; with SK-MEL-5 melanoma it was 0.0666 µM; in the test on UACC-62 melanoma, less than 10 nM. The TGI in the test on A498 renal was 8.85 µM; in the test on EKVX NSCLC, 9.27 µM; in the test on HT29 colon it was more than 27.7 µM; with LOX IMVI melanoma it was 7.44 µM; in the test on NCI-H226 lung, 6.78 µM; in the test on NCI-H23 lung it was 3.44 µM. Besides, the TGI in the test with RXF 393 renal was 4 µM; in the test on SK-MEL-5 melanoma, 2.27 µM; in the test on UACC-62 melanoma, 2.19 µM.

Take `CCc1cccc(C(C)C)c1NC(=O)C(=O)CC(=O)c1c(C)n([O-])c2ccccc2[n+]1=O`: the TGI in the test with A498 renal, in the test with EKVX NSCLC, in the test with LOX IMVI melanoma, in the test on NCI-H226 lung, in the test on NCI-H23 lung and with RXF 393 renal was more than 100 µM in each case. Further, the TGI in the test on SK-MEL-5 melanoma and in the test on UACC-62 melanoma was more than 100 µM in each case.

Consider `COc1ccc(C2SCC(=O)N2NC(=O)C(O)c2ccccc2)cc1OC` (stereo not drawn), for which the GI50 was more than 100 µM in the test on A498 renal; more than 100 µM in the test with EKVX NSCLC; more than 100000 nM in the test with HT29 colon; more than 100000 nM with LOX IMVI melanoma; more than 100 µM in the test on NCI-H226 lung; more than 100000 nM with RXF 393 renal. The GI50 was more than 100 µM in the test with SK-MEL-5 melanoma and more than 100000 nM with UACC-62 melanoma. In addition, the TGI in the test with A498 renal, in the test on EKVX NSCLC, with HT29 colon, with LOX IMVI melanoma, in the test with NCI-H226 lung and in the test with RXF 393 renal was more than 100 µM each time. Also, the TGI in the test on SK-MEL-5 melanoma and with UACC-62 melanoma was more than 100 µM in each case.
